# Data taken from ChEMBL document CHEMBL1136412, “Imidazo[4,5-c]pyridines as corticotropin releasing factor receptor ligands” (Bioorg Med Chem Lett, 2003).
# How the values were obtained:
# [1] = Partition coefficient (logP); type: physicochemical; conditions: octanol/water
# [2] = pKa value of the compound; type: physicochemical
# [3] = biological target: T1, Corticotropin releasing factor receptor (Rattus norvegicus, UniProt P47866+P35353); test: In vitro binding affinity against Corticotropin releasing factor receptor in rat cortical homogenates
# Canis familiaris [4] = test: Area under the curve at a dose of 1 mg/kg (oral); type: ADME, organism-based, Canis lupus familiaris; parameters: dose 1 mg/kg; conditions: dog, in vivo
# Canis familiaris [5] = test: Area under the curve at i.v. dose of 0.2 mg/kg; type: ADME, organism-based, Canis lupus familiaris; parameters: dose 0.2 mg/kg, route intravenous; conditions: dog, in vivo, iv
# [6] = Maximal plasma concentration at a dose of 1 mg/kg (oral); type: ADME, organism-based, Canis lupus familiaris; parameters: route oral, dose 1 mg/kg; conditions: dog
# [7] = Oral bioavailability at a dose of 1 mg/kg in dogs; type: ADME, organism-based, Canis lupus familiaris; conditions: dog, in vivo
# [8] = (§1) Half life was evaluated in dog; type: ADME, organism-based, Canis lupus familiaris; conditions: in vivo
# Canis familiaris [9] = species on record: Canis familiaris; test: as §1; type: ADME, organism-based, Canis lupus familiaris; conditions: in vivo
# [10] = Clearance value at a dose of 0.2 mg/kg i.v.; type: ADME, organism-based, Canis lupus familiaris; parameters: dose 0.2 mg/kg, route intravenous; conditions: dog, in vivo, iv, read-out: Cls (converted)
# [11] = Steady state volume of distribution at a dose of 0.2 mg/kg i.v.; type: ADME, organism-based, Canis lupus familiaris; parameters: dose 0.2 mg/kg, route intravenous; conditions: dog, in vivo, iv, read-out: Vss
# [12] = biological target: T1, Corticotropin releasing factor receptor; test: In vitro binding affinity against CRF receptor in rat cortical homogenates
logP [1],Ki [3],SMILES,also measured
5.56,–,CCc1nc2c(-c3ccc(Cl)cc3Cl)ccnc2n1C(CC)C1CC1 (stereo not drawn),pKa [2]: 3.86
–,14 nM,CCc1nc2c(-c3ccc(Cl)cc3C)nccc2n1C(CC)C1CC1 (stereo not drawn),–
5.35,–,CCCC(C)n1c(CC)nc2c(-c3ccc(OC(F)F)cc3Cl)ccnc21 (stereo not drawn),–
–,2.9 nM,CCc1nc2c(-c3ccc(C(F)(F)F)cc3Cl)nccc2n1C(CC)C1CC1 (stereo not drawn),–
–,9.1 nM,CCCC(C)n1c(CC)nc2c(-c3ccc(Cl)cc3C)nccc21 (stereo not drawn),–
–,1.9 nM,CCC[C@@H](C)n1c(CC)nc2c(-c3ccc(OC(F)(F)F)cc3Cl)nccc21,–
4.1,–,CCc1nc2c(-c3ccc(Cl)cc3Cl)nccc2n1C(CC)C1CC1 (stereo not drawn),–
–,4.4 nM,CCc1nc2c(-c3ccc(Cl)cc3C(F)(F)F)nccc2n1C(CC)C1CC1 (stereo not drawn),–
–,3.5 nM,CCCC(C)n1c(CC)nc2c(-c3ccc(C(F)(F)F)cc3Cl)nccc21 (stereo not drawn),–
4.62,2.8 nM,CCCC(C)n1c(CC)nc2c(-c3ccc(OC(F)(F)F)cc3Cl)nccc21 (stereo not drawn),pKa [2]: 5.09
4.33,–,CCc1nc2c(-c3ccc(Cl)cc3Cl)ncnc2n1C(C)C1CC1 (stereo not drawn),pKa [2]: < 3
–,5.4 nM,CCc1nc2c(-c3ccc(C(F)(F)F)cc3Cl)nccc2n1C(CC)CC,–
–,9 nM,CCCC(C)n1c(CC)nc2c(-c3ccc(OC(F)F)cc3C)nccc21 (stereo not drawn),–
–,3 nM,CCCC(C)n1c(CC)nc2c(-c3ccc(Cl)cc3Cl)nccc21 (stereo not drawn),–
–,2.3 nM,CCC[C@H](C)n1c(CC)nc2c(-c3ccc(OC(F)(F)F)cc3Cl)nccc21,AUC (Canis familiaris [4]): 0.569 µM·h; AUC (Canis familiaris [5]): 0.341 µM·h; Cmax [6]: 92.4 nM; bioavailability [7]: 33%; half-life [8]: 15.1 h; T1/2 (Canis familiaris [9]): 9.4 h; clearance [10]: 23.3 mL/min/kg; Vd [11]: 19.1 L/kg
–,–,CCc1nc2c(-c3ccc(OC(F)(F)F)cc3Cl)nccc2n1C(C)CC (stereo not drawn),Ki [12]: 7.8 nM
